This is an account of results in patent US10919916B2, “Boron-containing small molecules” (Bill & Melinda Gates Foundation, priority 2016, dated 2021).

In brackets after ≈: the same amount, converted by molar mass.

Holding throughout (format): cell-based
The subject of assay [1] is Wolbachia pipientis in C6/36 cell line. The assay is described as follows: Anti-Wolbachia high-content assay. The conditions noted are these: C6/36 (wAlbB) cells, 7 days at 26° C., 50% reduction of Wolbachia, read-out: EC50 Wolbachia pipientis in C6/36 cell line. Summed up: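 Wolbachia-infected C6/36 cells stained 15 minutes, then medium replaced and five fields per well imaged confocally at 60× with fluorescein filters. Each intact cell scored on cytoplasmic texture complexity.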

The test system of assay [2] is Streptococcus pneumoniae (ATCC 49619). Briefly: Antibacterial MIC assay (microbroth dilution, CLSI). The conditions noted are these: ATCC49619, microbroth dilution, 3% lysed horse blood, 35° C. for 16-20 hours, read-out: MIC Streptococcus pneumoniae (ATCC 49619). In a few lines:
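S. pneumoniae at 5×10^5 CFU/mL (from 0.5 McFarland saline suspension) was tested against 2-fold serial compound dilutions in cation-adjusted Mueller-Hinton broth plus 3% lysed horse blood, per CLSI M07-A10/M100-S25 microdilution guidelines.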

Assay [3] has as its system Staphylococcus aureus, MRSA (ATCC 33591). The description is as above. The conditions noted are these: microbroth dilution, cation-adjusted Mueller-Hinton broth, 35° C. for 16-20 hours, read-out: MIC Staphylococcus aureus, MRSA (ATCC 33591). In a few lines:
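Compound 2-fold dilution series tested against 5×10^5 CFU/mL bacteria prepared from 0.5 McFarland saline suspensions of overnight colonies. Medium was cation-adjusted Mueller-Hinton broth, supplemented with 3% lysed horse blood for the fastidious pneumococcus. Protocol followed CLSI M07-A10 and M100-S25.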

As for `C=C[C@]1(C)C[C@@H](OC(=O)COc2cnc3c(c2)B(O)OC3)[C@]2(C)[C@H](C)CC[C@]3(CCC(=O)[C@H]32)[C@@H](C)[C@@H]1O` [Compound 101, (3aR,4R,5R,7S,8S,9R,9aS,12R)-8-hydroxy-4,7,9,12-tetramethyl-3-oxo-7-vinyldecahydro-4,9a-propanocyclopenta[8]annulen-5-yl 2-((1-hydroxy-1,3-dihydro-[1,2]oxaborolo[4,3-b]pyridin-6-yl)oxy)acetate], the EC50 in assay [1] is greater than 1000 nM. Besides, the results for the MIC in assay [2] and in assay [3] were 4 to 32 µg/mL (≈ 7.82 to 62.6 µM) and 0.5 to 2 µg/mL (≈ 0.978 to 3.91 µM), respectively.

As for `C=C[C@]1(C)C[C@@H](OC(=O)CNc2cnc3c(c2)B(O)OC3)[C@]2(C)[C@H](C)CC[C@]3(CCC(=O)[C@H]32)[C@@H](C)[C@@H]1O` [Compound 102, (3aR,4R,5R,7S,8S,9R,9aS,12R)-8-hydroxy-4,7,9,12-tetramethyl-3-oxo-7-vinyldecahydro-4,9a-propanocyclopenta[8]annulen-5-yl (1-hydroxy-1,3-dihydro-[1,2]oxaborolo[4,3-b]pyridin-6-yl)glycinate], in assay [1], the EC50 is greater than 1000 nM. Besides, the minimal inhibitory concentration (MIC) in assay [2] and in assay [3] was greater than 64 µg/mL throughout.

Turning to `C=C[C@]1(C)C[C@@H](OC(=O)COc2ccc(C3=CCOB3O)cc2)[C@]2(C)[C@H](C)CC[C@]3(CCC(=O)[C@H]32)[C@@H](C)[C@@H]1O` [Compound 103, (3aR,4R,5R,7S,8S,9R,9aS,12R)-8-hydroxy-4,7,9,12-tetramethyl-3-oxo-7-vinyldecahydro-4,9a-propanocyclopenta[8]annulen-5-yl 2-(4-(2-hydroxy-2,5-dihydro-1,2-oxaborol-3-yl)phenoxy)acetate], the EC50 in assay [1] was 419 nM. Moreover, the MIC in assay [2] and in assay [3] was less than 0.25 µg/mL each time.
